Measured values: patent US20090181931A1, “ANTIVIRAL ACTIVITY OF CIDOFOVIR AGAINST ONCOLYTIC VIRUSES” (priority 2008, published 2009)
Values joined by “and” are separate entries in the source; they are usually repeats but may differ in a detail not shown here. Equal entries are not always repeated.

Tests used:
[1] = XTT cell viability assay, CDV alone, H1299 cells; assay type: cell-based; conditions: human; H1299 cells, XTT; read-out: CC50, CDV concentration that reduce the relative cell viability to 50%
Description: (§1) Cells frozen in liquid nitrogen were thawed in water bath at 37° C., seeded at T25 flask, and cultured at 70-90% sub-confluent monolayer. Cells were detached with trypsin, and prepared suspension at a concentration of 1.0×10^4 cells/ml.
(§2) Cells were seeded in 96 well-plate (100 μL/well, 1000 cells/well), then cultured with 5% CO2 at 37° C.
(§3) Viruses were diluted at MOI of 1 (OBP-301, OBP-202) in H1299 and 5 in A549 (PFU/cell). Medium in each well was removed, 150 μL of diluted virus solution was added to each well of the plate. 2 hours later, medium was aspirated and replaced with fresh medium containing 2% FCS and serially diluted CDV. Cells were incubated with 5% CO2 at 37° C. for 7 days after infection.
(§4) Viruses were diluted at MOI of 0.1 (OBP-401) or 10 (ONYX-015) in H1299. Medium in each well was removed, 50 μL of diluted virus solution was added to each well of the plate. 2 hours later, medium was aspirated and replaced with fresh medium containing 2% FCS and serially diluted CDV. Cells were incubated with 5% CO2 at 37° C. for 7 days after infection.
(§5) 100 μL of PBS, 50 μL of XTT labeling reagent, and 1 μL of ion coupling reagent per well of plate were mixed.
(§6) Medium in each well of plate was removed, and 150 μL of mixture prepared above was added to each well. Plate was incubated with 5% CO2 at 37° C. for 4 hours, and then calculated absorbance at 450 nm and 690 nm. Protection was determined by the formula below: […]

[2] = tested on: H1299 cells; assay: XTT cell viability assay, CDV alone, H1299 cells; assay type: cell-based; conditions: for Relative cell viability Ave. / Relative cell viability: H1299, no virus, 7 days; for Relative cell viability: single wells, dihydrate
Description: as §1, §2, §3, §4, §5, §6

[3] = XTT cell viability assay, CDV alone, A549 cells; assay type: cell-based; conditions: human; A549 cells, XTT; read-out: CC50, CDV concentration that reduce the relative cell viability to 50%
Description: as §1, §2, §3, §5, §6

[4] = tested on: A549 cells; assay: XTT cell viability assay, CDV alone, A549 cells; assay type: cell-based; conditions: for Relative cell viability Ave. / Relative cell viability: A549, no virus, 7 days; for Relative cell viability: single wells, dihydrate
Description: as §1, §2, §3, §5, §6

[5] = tested on: Telomelysin (OBP-301); assay: XTT assay, protection from cytopathic effect of Telomelysin in H1299 cells; assay type: cell-based, adenovirus; conditions: for Protection (%) Ave. / Protection (%): Telomelysin MOI 1, H1299, 7 days; for Protection (%): single wells, dihydrate
Description: as §1, §2, §3, §5
Medium in each well of plate was removed, and 150 μL of mixture prepared above was added to each well. Plate was incubated with 5% CO2 at 37° C. for 4 hours, and then calculated absorbance at 450 nm and 690 nm. Protection was determined by the formula below:
Protection(%)={OD(AdV(+):CDV(+))−OD(AdV(+):CDV(−))}/{OD(AdV(−):CDV(+))−OD(AdV(+):CDV(−))}×100.

Nc1ccn(C[C@@H](CO)OCP(=O)(O)O)c(=O)n1.O.O [CDV, 1-[(S)-3-hydroxy-2-(phosphonomethoxy)propyl]cytosine dihydrate]
CC50 at 7 days [1]: 146 µM
Relative cell viability Ave. ([2]; CDV 0.01 μM, Table 4A): 1.014
Relative cell viability Ave. ([2]; CDV 0.01 μM, Table 4B): 0.992
Relative cell viability ([2]; CDV 0.01 μM, Table 4A): 0.978 and 1.068 and 1.002 and 1.009
Relative cell viability ([2]; CDV 0.01 μM, Table 4B): 0.970 and 1.010 and 0.999 and 0.990
Relative cell viability Ave. ([2]; CDV 0.06 μM, Table 4A): 0.996
Relative cell viability Ave. ([2]; CDV 0.06 μM, Table 4B): 0.985
Relative cell viability ([2]; CDV 0.06 μM, Table 4A): 0.945 and 1.070 and 0.997 and 0.972
Relative cell viability ([2]; CDV 0.06 μM, Table 4B): 0.950 and 1.019 and 0.990 and 0.981
Relative cell viability Ave. ([2]; CDV 0.32 μM, Table 3A): 1.074
Relative cell viability Ave. ([2]; CDV 0.32 μM, Table 4A): 1.020
Relative cell viability ([2]; CDV 0.32 μM, Table 3A): 0.963 and 1.073 and 1.171 and 1.087
Relative cell viability ([2]; CDV 0.32 μM, Table 4A): 0.977 and 1.068 and 1.001 and 1.032
Relative cell viability Ave. ([2]; CDV 1.6 μM, Table 3A): 1.017
Relative cell viability Ave. ([2]; CDV 1.6 μM, Table 4A): 1.030
Relative cell viability Ave. ([2]; CDV 1.6 μM, Table 4B): 0.990
Relative cell viability ([2]; CDV 1.6 μM, Table 3A): 0.970 and 1.043 and 1.110 and 0.945
Relative cell viability ([2]; CDV 1.6 μM, Table 4A): 0.981 and 1.061 and 1.044 and 1.033
Relative cell viability ([2]; CDV 1.6 μM, Table 4B): 0.984 and 0.996 and 0.983 and 0.997
Relative cell viability Ave. ([2]; CDV 8 μM, Table 3A): 1.010
Relative cell viability Ave. ([2]; CDV 8 μM, Table 4A): 0.989
Relative cell viability Ave. ([2]; CDV 8 μM, Table 4B): 0.925
Relative cell viability ([2]; CDV 8 μM, Table 3A): 0.912 and 1.037 and 1.043 and 1.047
Relative cell viability ([2]; CDV 8 μM, Table 4A): 0.918 and 1.022 and 1.016 and 0.999
Relative cell viability ([2]; CDV 8 μM, Table 4B): 0.913 and 0.935 and 0.928 and 0.923
Relative cell viability Ave. ([2]; CDV 40 μM, Table 3A): 0.923
Relative cell viability Ave. ([2]; CDV 40 μM, Table 4A): 0.695
Relative cell viability Ave. ([2]; CDV 40 μM, Table 4B): 0.600
Relative cell viability ([2]; CDV 40 μM, Table 3A): 1.004 and 0.919 and 0.876 and 0.894
Relative cell viability ([2]; CDV 40 μM, Table 4A): 0.709 and 0.677 and 0.686 and 0.706
Relative cell viability ([2]; CDV 40 μM, Table 4B): 0.588 and 0.574 and 0.628 and 0.609
Relative cell viability Ave. ([2]; CDV 200 μM, Table 3A): 0.398
Relative cell viability Ave. ([2]; CDV 200 μM, Table 4A): 0.199
Relative cell viability Ave. ([2]; CDV 200 μM, Table 4B): 0.136
Relative cell viability ([2]; CDV 200 μM, Table 3A): 0.401 and 0.420 and 0.362 and 0.411
Relative cell viability ([2]; CDV 200 μM, Table 4A): 0.221 and 0.203 and 0.185 and 0.186
Relative cell viability ([2]; CDV 200 μM, Table 4B): 0.135 and 0.128 and 0.145 and 0.134
Relative cell viability Ave. ([2]; CDV 1000 μM, Table 4A): 0.037
Relative cell viability Ave. ([2]; CDV 1000 μM, Table 4B): 0.015
Relative cell viability ([2]; CDV 1000 μM, Table 4A): 0.033 and 0.043 and 0.036 and 0.037
Relative cell viability ([2]; CDV 1000 μM, Table 4B): 0.021 and 0.013 and 0.012 and 0.015
toxicity of CDV itself ([2]; H1299 cells, high concentrations): toxic
CC50 at 7 days [3]: 107 µM
toxicity of CDV itself ([4]; A549 cells, high concentrations): toxic
Relative cell viability Ave. ([4]; CDV 10 μM): 0.969
Relative cell viability ([4]; CDV 10 μM): 0.993 and 0.938 and 0.962 and 0.982
Relative cell viability Ave. ([4]; CDV 20 μM): 0.935
Relative cell viability ([4]; CDV 20 μM): 0.982 and 0.877 and 0.924 and 0.958
Relative cell viability Ave. ([4]; CDV 30 μM): 0.912
Relative cell viability ([4]; CDV 30 μM): 0.944 and 0.883 and 0.881 and 0.939
Relative cell viability Ave. ([4]; CDV 40 μM): 0.908
Relative cell viability ([4]; CDV 40 μM): 0.951 and 0.860 and 0.910 and 0.911
Relative cell viability Ave. ([4]; CDV 50 μM): 0.852
Relative cell viability ([4]; CDV 50 μM): 0.819 and 0.842 and 0.862 and 0.884
Relative cell viability Ave. ([4]; CDV 60 μM): 0.798
Relative cell viability ([4]; CDV 60 μM): 0.755 and 0.792 and 0.809 and 0.837
Relative cell viability Ave. ([4]; CDV 70 μM): 0.720
Relative cell viability ([4]; CDV 70 μM): 0.709 and 0.703 and 0.747 and 0.719
Relative cell viability Ave. ([4]; CDV 80 μM): 0.696
Relative cell viability ([4]; CDV 80 μM): 0.656 and 0.707 and 0.737 and 0.683
Relative cell viability Ave. ([4]; CDV 90 μM): 0.544
Relative cell viability ([4]; CDV 90 μM): 0.502 and 0.552 and 0.606 and 0.518
Relative cell viability Ave. ([4]; CDV 100 μM): 0.471
Relative cell viability ([4]; CDV 100 μM): 0.511 and 0.451 and 0.482 and 0.438
Protection (%) Ave. ([5]; CDV 0.32 μM): 7.983%
Protection (%) ([5]; CDV 0.32 μM): 10.293% and 11.665% and 3.980% and 5.993%
Protection (%) Ave. ([5]; CDV 1.6 μM): 0.274%
Protection (%) ([5]; CDV 1.6 μM): 3.339% and −5.901% and 1.144% and 2.516%
Protection (%) Ave. ([5]; CDV 8 μM): 3.065%
Protection (%) Ave. ([5]; CDV 40 μM): 83.829%
Protection (%) ([5]; CDV 40 μM): 88.243% and 72.049% and 84.950% and 90.073%
Protection (%) Ave. ([5]; CDV 200 μM): 29.369%
Protection (%) ([5]; CDV 200 μM): 29.414% and 30.878% and 28.957% and 28.225%
Telomelysin-mediated cytopathic effect ([5]; H1299 cells, FIG. 1A): apparently inhibited
EC50 ([5]; NCI-H1299, Telomelysin, H1299 cells, XTT, read-out: EC50, CDV concentration that archive the protection to 50%): 20.4 µM
